Laboratory results taken from patent US10800791B2, “Triazole ACC inhibitors and uses thereof” (Gilead Apollo, LLC, priority 2015, dated 2020).
≈ marks a conversion by molar mass, not a printed value. Where two headings read alike, the source gives them in different places.

Columns and labels:
[1] = molecular target: fungal (fACC2) (UniProt Q00955); settings: read-out: fACC2 (in vitro ACC2 Inhibition Assay, IC50), ADP-Glo, 5 nM ACC2, 20 μM ATP, 20 μM acetyl-CoA
[2] = test system: C. albicans; experiment: Antifungal Activity Assay (broth microtiter MIC), C. albicans; format: cell-based, Candida albicans; settings: Candida albicans, ATCC90028, 48 h
Procedure: (§1) Compounds of the present invention were evaluated in an Antifungal Activity Assay. An exemplary procedure for the assay, which measures the susceptibility of various Candida species to antifungal compounds, follows. Compounds to be tested (including fluconazole and amphotericin B) were dissolved in DMSO to obtain a solution having a concentration of 1 mg/mL. These stock solutions were sterile filtered using a 0.22 um nylon syringe filter, then diluted in sterile water to achieve a final concentration of 128 μg/mL.
(§2) All species were grown from frozen stock by directly plating on to freshly prepared Sabouraud Dextrose agar (BD, Difco) and incubated overnight in ambient air at 35° C. for 24 h. A direct suspension was prepared in RPMI 1640+MOPS (Lonza, Biowhittaker) by taking individual colonies from the overnight cultures using sterile swabs soaked in sterile saline. The concentration of the suspension was determined using pre-determined standard curves. These suspensions were then diluted down to 5×10^3 CFU/mL to achieve a final concentration of 2.5×10^3 CFU/mL once added to the microtiter plate as per CLSI guidelines (M27-A3, Vol. 28 No. 14).
(§3) Broth microtiter MIC challenge plates were prepared following CLSI guidelines (M27-A3, Vol. 28 No. 14). The original CLSI guidelines focused on reading Candida MICs after 48 h of incubation. As reading after only 24 h offers a clear advantage of patient care, QC limits are being established for all drugs at 24 h. That being said there are no known interpretive breakpoints for amphotericin B at 24 h and the current fluconazole interpretive breakpoints are based on a 48 h reading. The MICs for the test compounds were recorded at 48 h. All MIC determinations were achieved by visually comparing the growth found in the antibiotic challenged wells to that of the growth control.

[3] = test system: C. parapsilosis; experiment: Antifungal Activity Assay (broth microtiter MIC), C. parapsilosis; format: cell-based, Candida parapsilosis; settings: Lodderomyces parapsilosis, ATCC22019, 48 h
Procedure: as §1, §2, §3

[4] = molecular target: human (hACC2) (Homo sapiens, UniProt O00763); experiment: In vitro ACC inhibition assay (ADP-Glo), hACC2; format: biochemical; settings: 5 nM ACC2, 20 μM ATP, 20 μM acetyl-CoA
Procedure: The detailed procedure is as follows. […] 10 μL ADP glo reagent was added. […] 20 μL kinase detection reagent was added.

[5] = test system: C. krusei; experiment: Antifungal Activity Assay (broth microtiter MIC), C. krusei; format: cell-based, Candida krusei; settings: Pichia kudriavzevii, ATCC6258, 48 h
Procedure: as §1, §2, §3

[6] = Table 3b (additional results), ATCC 90028, 3 replicates, MIC recorded at 48 h, read-out: MIC, C. albicans ATCC 90028
[7] = Table 3b (additional results), ATCC 22019, 3 replicates, MIC recorded at 48 h, read-out: MIC, C. parapsilosis ATCC 22019
[8] = Table 3b (additional results), ATCC 6258, 3 replicates, MIC recorded at 48 h, read-out: MIC, C. krusei ATCC 6258
[9] = Table 3a, ATCC 90028, 3 replicates, MIC recorded at 48 h, read-out: MIC, C. albicans ATCC 90028
[10] = Table 3a, ATCC 22019, 3 replicates, MIC recorded at 48 h, read-out: MIC, C. parapsilosis ATCC 22019
[11] = Table 3a, ATCC 6258, 3 replicates, MIC recorded at 48 h, read-out: MIC, C. krusei ATCC 6258
[12] = read-out: MIC, C. albicans ATCC 90028, Table 3b (additional results), 3 replicates, MIC recorded at 48 h
[13] = read-out: MIC, C. parapsilosis ATCC 22019, Table 3b (additional results), 3 replicates, MIC recorded at 48 h
[14] = read-out: MIC, C. krusei ATCC 6258, Table 3b (additional results), 3 replicates, MIC recorded at 48 h

Sequence of human (hACC2) (O00763 whole entry): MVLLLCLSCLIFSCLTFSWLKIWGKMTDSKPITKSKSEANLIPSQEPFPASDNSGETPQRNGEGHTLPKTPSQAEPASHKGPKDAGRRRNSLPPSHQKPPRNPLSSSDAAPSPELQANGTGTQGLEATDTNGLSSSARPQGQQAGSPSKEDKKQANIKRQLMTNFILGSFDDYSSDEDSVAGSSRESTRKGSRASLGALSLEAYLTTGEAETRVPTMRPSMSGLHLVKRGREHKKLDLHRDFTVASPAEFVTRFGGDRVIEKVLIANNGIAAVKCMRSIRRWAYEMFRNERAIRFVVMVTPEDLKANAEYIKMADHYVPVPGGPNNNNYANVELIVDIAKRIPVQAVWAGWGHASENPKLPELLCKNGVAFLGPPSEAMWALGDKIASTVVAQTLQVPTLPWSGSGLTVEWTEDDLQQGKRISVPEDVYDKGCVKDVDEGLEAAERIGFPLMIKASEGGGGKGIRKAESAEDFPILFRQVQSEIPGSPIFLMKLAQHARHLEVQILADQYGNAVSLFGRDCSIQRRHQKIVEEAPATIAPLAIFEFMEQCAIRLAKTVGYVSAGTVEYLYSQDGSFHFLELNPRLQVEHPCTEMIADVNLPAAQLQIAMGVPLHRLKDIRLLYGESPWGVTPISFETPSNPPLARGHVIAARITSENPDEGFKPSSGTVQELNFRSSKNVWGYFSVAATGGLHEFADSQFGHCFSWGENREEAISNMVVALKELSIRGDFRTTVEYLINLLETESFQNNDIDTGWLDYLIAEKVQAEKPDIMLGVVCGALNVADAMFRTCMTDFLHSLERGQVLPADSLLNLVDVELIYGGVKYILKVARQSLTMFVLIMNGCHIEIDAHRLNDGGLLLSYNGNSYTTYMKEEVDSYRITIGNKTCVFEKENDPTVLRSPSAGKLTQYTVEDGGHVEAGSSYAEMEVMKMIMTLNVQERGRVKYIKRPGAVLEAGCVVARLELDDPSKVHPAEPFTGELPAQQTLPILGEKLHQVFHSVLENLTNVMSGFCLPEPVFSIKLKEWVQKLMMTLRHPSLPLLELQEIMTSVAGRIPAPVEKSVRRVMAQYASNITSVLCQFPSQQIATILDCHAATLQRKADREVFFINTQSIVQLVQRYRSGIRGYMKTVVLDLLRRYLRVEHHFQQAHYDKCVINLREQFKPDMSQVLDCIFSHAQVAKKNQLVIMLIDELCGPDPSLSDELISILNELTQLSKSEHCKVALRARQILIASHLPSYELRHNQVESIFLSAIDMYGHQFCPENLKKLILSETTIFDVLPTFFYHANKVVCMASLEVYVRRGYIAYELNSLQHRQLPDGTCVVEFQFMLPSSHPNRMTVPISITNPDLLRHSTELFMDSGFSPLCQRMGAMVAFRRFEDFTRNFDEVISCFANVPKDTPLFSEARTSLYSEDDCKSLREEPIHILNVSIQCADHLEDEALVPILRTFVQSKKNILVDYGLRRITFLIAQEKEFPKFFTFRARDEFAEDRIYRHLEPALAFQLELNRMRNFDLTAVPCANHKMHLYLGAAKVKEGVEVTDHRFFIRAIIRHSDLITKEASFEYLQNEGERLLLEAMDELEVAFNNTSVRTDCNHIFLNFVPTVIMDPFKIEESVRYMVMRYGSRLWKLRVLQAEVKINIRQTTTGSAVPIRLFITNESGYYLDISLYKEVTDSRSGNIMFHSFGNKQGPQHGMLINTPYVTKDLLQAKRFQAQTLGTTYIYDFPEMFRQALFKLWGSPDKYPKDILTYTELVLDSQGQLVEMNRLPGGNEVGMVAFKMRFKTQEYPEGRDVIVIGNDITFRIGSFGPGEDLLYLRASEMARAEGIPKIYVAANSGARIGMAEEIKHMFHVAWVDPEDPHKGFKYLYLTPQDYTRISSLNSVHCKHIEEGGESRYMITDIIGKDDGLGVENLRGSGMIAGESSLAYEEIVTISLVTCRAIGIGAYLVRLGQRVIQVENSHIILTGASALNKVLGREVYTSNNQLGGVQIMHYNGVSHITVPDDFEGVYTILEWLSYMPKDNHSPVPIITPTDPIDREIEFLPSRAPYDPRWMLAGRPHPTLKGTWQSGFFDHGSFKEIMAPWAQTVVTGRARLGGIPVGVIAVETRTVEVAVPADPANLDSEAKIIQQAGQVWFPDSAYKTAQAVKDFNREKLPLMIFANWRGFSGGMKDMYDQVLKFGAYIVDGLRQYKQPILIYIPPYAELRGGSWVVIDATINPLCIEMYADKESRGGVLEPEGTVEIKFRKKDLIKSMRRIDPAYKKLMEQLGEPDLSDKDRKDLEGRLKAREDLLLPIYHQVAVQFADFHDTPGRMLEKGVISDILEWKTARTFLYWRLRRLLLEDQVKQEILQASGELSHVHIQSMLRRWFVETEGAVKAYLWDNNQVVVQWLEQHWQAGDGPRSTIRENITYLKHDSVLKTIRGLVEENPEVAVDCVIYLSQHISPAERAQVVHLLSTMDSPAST
Sequence of fungal (fACC2) (Q00955 whole entry): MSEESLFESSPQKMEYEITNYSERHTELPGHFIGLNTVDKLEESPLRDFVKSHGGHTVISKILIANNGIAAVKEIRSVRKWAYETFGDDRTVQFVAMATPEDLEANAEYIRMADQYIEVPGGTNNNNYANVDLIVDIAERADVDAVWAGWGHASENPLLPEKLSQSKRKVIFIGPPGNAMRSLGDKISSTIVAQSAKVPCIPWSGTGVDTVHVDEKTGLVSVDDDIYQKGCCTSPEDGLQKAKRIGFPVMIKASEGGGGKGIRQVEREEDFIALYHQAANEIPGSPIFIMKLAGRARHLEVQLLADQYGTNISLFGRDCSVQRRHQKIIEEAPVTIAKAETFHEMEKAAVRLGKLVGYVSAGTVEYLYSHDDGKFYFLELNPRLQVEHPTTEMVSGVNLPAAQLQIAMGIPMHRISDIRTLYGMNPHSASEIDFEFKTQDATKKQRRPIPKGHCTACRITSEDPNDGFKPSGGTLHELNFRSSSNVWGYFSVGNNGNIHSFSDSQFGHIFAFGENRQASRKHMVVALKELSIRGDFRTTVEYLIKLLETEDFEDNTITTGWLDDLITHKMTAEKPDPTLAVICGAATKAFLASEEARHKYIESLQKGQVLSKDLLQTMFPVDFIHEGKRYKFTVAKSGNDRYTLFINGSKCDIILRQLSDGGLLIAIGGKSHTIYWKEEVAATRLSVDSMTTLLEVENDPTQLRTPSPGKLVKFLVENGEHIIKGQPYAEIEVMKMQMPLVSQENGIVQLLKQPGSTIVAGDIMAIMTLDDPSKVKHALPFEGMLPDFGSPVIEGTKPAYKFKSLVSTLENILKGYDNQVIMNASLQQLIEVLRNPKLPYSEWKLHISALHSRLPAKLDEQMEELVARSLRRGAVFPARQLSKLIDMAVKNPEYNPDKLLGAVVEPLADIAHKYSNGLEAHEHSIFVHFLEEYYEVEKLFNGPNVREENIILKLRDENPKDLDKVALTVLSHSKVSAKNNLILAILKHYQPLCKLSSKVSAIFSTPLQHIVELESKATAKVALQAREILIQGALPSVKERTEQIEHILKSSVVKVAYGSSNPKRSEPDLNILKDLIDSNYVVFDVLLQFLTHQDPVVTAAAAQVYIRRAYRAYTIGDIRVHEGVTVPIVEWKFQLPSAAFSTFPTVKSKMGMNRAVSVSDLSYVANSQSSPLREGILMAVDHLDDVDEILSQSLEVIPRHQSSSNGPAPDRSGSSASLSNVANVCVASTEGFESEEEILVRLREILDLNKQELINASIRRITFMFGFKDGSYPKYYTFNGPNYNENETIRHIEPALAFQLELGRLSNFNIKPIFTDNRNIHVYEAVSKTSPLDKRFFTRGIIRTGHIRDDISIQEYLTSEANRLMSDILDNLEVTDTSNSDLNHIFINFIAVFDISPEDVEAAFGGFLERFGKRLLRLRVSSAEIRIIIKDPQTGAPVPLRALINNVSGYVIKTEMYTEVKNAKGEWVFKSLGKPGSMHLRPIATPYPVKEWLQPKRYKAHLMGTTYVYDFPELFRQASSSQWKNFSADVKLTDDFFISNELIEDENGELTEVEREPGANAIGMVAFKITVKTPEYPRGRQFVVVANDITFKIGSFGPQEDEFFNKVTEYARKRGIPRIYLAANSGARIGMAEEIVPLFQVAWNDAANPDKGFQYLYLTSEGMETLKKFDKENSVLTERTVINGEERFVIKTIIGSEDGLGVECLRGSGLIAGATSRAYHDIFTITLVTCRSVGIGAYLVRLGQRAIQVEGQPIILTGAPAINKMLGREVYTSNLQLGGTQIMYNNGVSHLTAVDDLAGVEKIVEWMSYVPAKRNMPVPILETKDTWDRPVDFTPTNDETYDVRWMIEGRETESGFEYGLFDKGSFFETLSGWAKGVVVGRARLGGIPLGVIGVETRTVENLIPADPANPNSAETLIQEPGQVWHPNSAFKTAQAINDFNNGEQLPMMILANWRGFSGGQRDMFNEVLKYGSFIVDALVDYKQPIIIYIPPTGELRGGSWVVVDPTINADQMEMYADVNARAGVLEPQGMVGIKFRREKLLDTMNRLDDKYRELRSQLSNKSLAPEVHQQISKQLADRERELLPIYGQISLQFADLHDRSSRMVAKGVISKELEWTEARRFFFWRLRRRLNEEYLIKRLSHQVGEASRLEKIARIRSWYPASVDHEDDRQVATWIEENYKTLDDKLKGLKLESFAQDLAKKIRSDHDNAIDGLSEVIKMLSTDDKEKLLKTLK

| Structure (SMILES) | IC50 ([1]; Table 2b, additional results) [nM] | MIC [2, 6] [µg/mL] | MIC [3, 7] [µg/mL] | IC50 ([4]; Table 2b, additional results) [nM] | MIC [5, 8] [µg/mL] | IC50 ([1]; Table 2a) [nM] | MIC [2, 9] [µg/mL] | MIC [3, 10] [µg/mL] | IC50 ([4]; Table 2a) [nM] | MIC [5, 11] [µg/mL] | MIC [2, 12] [µg/mL] | MIC [3, 13] [µg/mL] | MIC [5, 14] [µg/mL] |
| --- | --- | --- | --- | --- | --- | --- | --- | --- | --- | --- | --- | --- | --- |
| CCc1ccc(F)cc1[C@H](Cn1c(=O)n(C(C)(C)C(=O)NC(C)C)c(=O)c2c(C)c(-n3nccn3)sc21)OCC(C)(C)O (stereo in doubt) [Compound I-240] | 1 to 5 | 1.01 to 2 (≈ 1.64 to 3.25 µM) | 2.01 to 4 (≈ 3.27 to 6.51 µM) | 10 to 40 | > 4.01 | – | – | – | – | – | – | – | – |
| CCc1ccc(F)cc1[C@@H](Cn1c(=O)n(C(C)(C)C(=O)NC(C)C)c(=O)c2c(C)c(-n3nccn3)sc21)OCC(C)(C)O (stereo in doubt) [Compound I-241] | 5 to 10 | 1.01 to 2 (≈ 1.64 to 3.25 µM) | 2.01 to 4 (≈ 3.27 to 6.51 µM) | > 40 | > 4.01 | – | – | – | – | – | – | – | – |
| COCCO[C@@H](Cn1c(=O)n([C@@H](C)C(=O)NC(C)C)c(=O)c2c(C)c(-n3nccn3)sc21)c1cc(F)ccc1OC [Compound I-83, (S)-2-(1-((R)-2-(5-fluoro-2-methoxyphenyl)-2-(2-methoxy-ethoxy)ethyl)-5-methyl-2,4-dioxo-6-(2H-1,2,3-triazol-2-yl)-1,4-dihydrothieno[2,3-d]pyrimidin-3(2H)-yl)-N-isopropylpropanamide] | 1 to 5 | > 4.01 | 1.01 to 2 (≈ 1.72 to 3.4 µM) | > 40 | 2.01 to 4 (≈ 3.41 to 6.8 µM) | 1 to 5 | 2.1 to 4 (≈ 3.57 to 6.8 µM) | 2.1 to 4 (≈ 3.57 to 6.8 µM) | > 40 | 2.1 to 4 (≈ 3.57 to 6.8 µM) | – | – | – |
| [2H]C([2H])([2H])Oc1ccccc1[C@H](Cn1c(=O)n(C(C)(C)C(N)=O)c(=O)c2c(C)c(-n3nccn3)sc21)OC1CCOCC1 [Compound I-92] | – | 0.25 to 1 (≈ 0.437 to 1.75 µM) | 2.01 to 4 (≈ 3.52 to 7 µM) | 5 to 10 | 1.01 to 2 (≈ 1.77 to 3.5 µM) | – | 0.25 to 1 (≈ 0.437 to 1.75 µM) | 1.1 to 2 (≈ 1.92 to 3.5 µM) | 5 to 10 | 0.25 to 1 (≈ 0.437 to 1.75 µM) | – | – | – |
| COc1ccc(F)cc1[C@H](Cn1c(=O)n(C(C)(C)C(=O)O)c(=O)c2c(C)c(-n3nccn3)sc21)OC(C)C [Compound I-93] | – | 2.01 to 4 (≈ 3.68 to 7.33 µM) | > 4.01 | 5 to 10 | 1.01 to 2 (≈ 1.85 to 3.67 µM) | – | 2.1 to 4 (≈ 3.85 to 7.33 µM) | > 4.1 | 5 to 10 | 2.1 to 4 (≈ 3.85 to 7.33 µM) | – | – | – |
| COc1ccc(F)cc1[C@H](Cn1c(=O)n(C(C)(C)C(=O)O)c(=O)c2c(C)c(-n3nccn3)sc21)OCC(C)C [Compound I-94] | – | 2.01 to 4 (≈ 3.59 to 7.15 µM) | > 4.01 | 1 to 5 | 2.01 to 4 (≈ 3.59 to 7.15 µM) | – | 0.25 to 1 (≈ 0.447 to 1.79 µM) | 2.1 to 4 (≈ 3.75 to 7.15 µM) | 1 to 5 | 2.1 to 4 (≈ 3.75 to 7.15 µM) | – | – | – |
| COc1ccc(F)cc1[C@H](Cn1c(=O)n(C(C)(C)C(=O)N2CC(O)C2)c(=O)c2c(C)c(-n3nccn3)sc21)OCC(C)C [Compound I-95] | – | 2.01 to 4 (≈ 3.27 to 6.51 µM) | 2.01 to 4 (≈ 3.27 to 6.51 µM) | 5 to 10 | 1.01 to 2 (≈ 1.64 to 3.25 µM) | – | 1.1 to 2 (≈ 1.79 to 3.25 µM) | 1.1 to 2 (≈ 1.79 to 3.25 µM) | 5 to 10 | 1.1 to 2 (≈ 1.79 to 3.25 µM) | – | – | – |
| COc1ccccc1[C@H](Cn1c(=O)n(C(C)(C)C(=O)O)c(=O)c2c(C)c(-n3nccn3)sc21)OC1CCOCC1 [Compound I-96] | 1 to 5 | 1.01 to 2 (≈ 1.77 to 3.51 µM) | 2.01 to 4 (≈ 3.53 to 7.02 µM) | 1 to 5 | 2.01 to 4 (≈ 3.53 to 7.02 µM) | 1 to 5 | 2.1 to 4 (≈ 3.69 to 7.02 µM) | 2.1 to 4 (≈ 3.69 to 7.02 µM) | 1 to 5 | 2.1 to 4 (≈ 3.69 to 7.02 µM) | – | – | – |
| COc1ccc(F)cc1[C@H](Cn1c(=O)n(C(C)(C)C(=O)NC(C)C)c(=O)c2c(C)c(-n3nccn3)sc21)OCC(C)=O [Compound I-97] | 0.3 to 1 | 1.01 to 2 (≈ 1.68 to 3.33 µM) | 1.01 to 2 (≈ 1.68 to 3.33 µM) | 1 to 5 | 0.25 to 1 (≈ 0.416 to 1.66 µM) | 0.4 to 1 | 0.25 to 1 (≈ 0.416 to 1.66 µM) | 0.25 to 1 (≈ 0.416 to 1.66 µM) | 1 to 5 | 0.06 to 0.24 (≈ 0.0999 to 0.4 µM) | – | – | – |
| COc1ccc(F)cc1[C@H](Cn1c(=O)n(C(C)(C)C(=O)N2CCCC2)c(=O)c2c(C)c(-n3nccn3)sc21)OCC(C)=O [Compound I-98] | 1 to 5 | 1.01 to 2 (≈ 1.65 to 3.26 µM) | 1.01 to 2 (≈ 1.65 to 3.26 µM) | 5 to 10 | 2.01 to 4 (≈ 3.28 to 6.53 µM) | 1 to 5 | 2.1 to 4 (≈ 3.43 to 6.53 µM) | 2.1 to 4 (≈ 3.43 to 6.53 µM) | 5 to 10 | 0.25 to 1 (≈ 0.408 to 1.63 µM) | – | – | – |
| COc1ccc(F)cc1[C@H](Cn1c(=O)n(C(C)C(=O)NC(C)C)c(=O)c2c(C)c(-n3nccn3)sc21)OCC(C)(C)O (some centres unmarked) [Compound I-132] | – | 1.01 to 2 (≈ 1.68 to 3.32 µM) | 1.01 to 2 (≈ 1.68 to 3.32 µM) | – | 2.01 to 4 (≈ 3.34 to 6.64 µM) | – | 0.25 to 1 (≈ 0.415 to 1.66 µM) | 0.25 to 1 (≈ 0.415 to 1.66 µM) | – | 0.25 to 1 (≈ 0.415 to 1.66 µM) | – | – | – |
| COc1ccc(F)cc1[C@H](Cn1c(=O)n(C(C)(C)C(=O)NC(C)C)c(=O)c2c(C)c(-n3nccn3)sc21)OC(C)(C)C(C)=O [Compound I-178] | – | – | – | 10 to 40 | – | – | – | – | 10 to 40 | – | 0.25 to 1 (≈ 0.398 to 1.59 µM) | 0.25 to 1 (≈ 0.398 to 1.59 µM) | 0.25 to 1 (≈ 0.398 to 1.59 µM) |
| COc1ccccc1[C@@H](O)Cn1c(=O)n(C(C)(C)C(=O)OCc2ccccc2)c(=O)c2c(C)c(-n3nccn3)sc21 [Compound I-179] | – | > 4.01 | 2.01 to 4 (≈ 3.49 to 6.95 µM) | > 40 | > 4.01 | – | – | – | > 40 | – | – | – | – |
| COc1ccc(F)cc1[C@H](Cn1c(=O)n(C(C)(C)C(=O)N2CC=CC2)c(=O)c2c(C)c(-n3nccn3)sc21)OCC(C)=O [Compound I-190] | – | > 4.01 | 2.01 to 4 (≈ 3.29 to 6.55 µM) | 5 to 10 | > 4.01 | – | – | – | – | – | – | – | – |
| Cc1c(-n2nccn2)sc2c1c(=O)n(C(C)(C)C(=O)NC(C)C)c(=O)n2C[C@H](O)c1cc(F)ccc1OCC#N [Compound I-199] | – | – | – | 5 to 10 | – | – | – | – | – | – | 2.01 to 4 (≈ 3.53 to 7.02 µM) | 1.01 to 2 (≈ 1.77 to 3.51 µM) | 2.01 to 4 (≈ 3.53 to 7.02 µM) |
| Cc1c(-n2nccn2)sc2c1c(=O)n(C(C)(C)C(=O)NC(C)C)c(=O)n2C[C@H](OCC(C)(C)O)c1cc(F)ccc1O [Compound I-236] | – | 1.01 to 2 (≈ 1.68 to 3.32 µM) | 2.01 to 4 (≈ 3.34 to 6.64 µM) | 10 to 40 | 2.01 to 4 (≈ 3.34 to 6.64 µM) | – | – | – | – | – | – | – | – |
